The values below come from patent US8017612B2, “Piperazine compound and use thereof as a HCV polymerase inhibitor” (priority 2006, dated 2011).

What is called IC50 is the midpoint of a concentration-inhibition curve. A high value points to a need for much substance.

SMILES strings stand for the structures.

The target of test [1] is T1, HCV polymerase (NS5B) type 1b (Hepatitis C virus genotype 1b, UniProt P26663).
T1 construct: a region encoding NS5B (J Virol 1991 March, 65(3), 1105-13, 544 amino acids after deletion of 47 amino acids on the C-terminal); 6xHis (C); made in house; host or cells: Escherichia coli
Description: Assay of enzyme (HCV polymerase) inhibitory activity, type 1b enzyme. Format: biochemical, HCV BK strain (type 1b). An outline of the steps: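 Polymerase activity was followed as radiolabelled UTP incorporation by E. coli-expressed, His-tagged NS5B of HCV type 1b lacking its last 47 residues. Conditions: 2 μM UTP, 50 μM other NTPs, Mg2+ buffer at pH 7.5, 25 °C for 60 min. Inhibition relative to compound-free reactions gave IC50.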

Test [2] addresses T2, HCV polymerase (NS5B) type 1a (Hepatitis C virus genotype 1a, UniProt P26664).
T2 construct: made in house; host or cells: Escherichia coli (by the 'similar method' of the 1b enzyme)
Description: Assay of enzyme (HCV polymerase) inhibitory activity, type 1a enzyme. Format: biochemical, HCV type 1a (cloned from the blood of patients). In short, it runs like this:
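IC50 values derive from radioactivity of newly synthesized RNA with versus without test compound. The enzyme was C-terminally truncated type 1a NS5B, 1.5 μg/ml, run 60 min at 25° C with 3H-UTP-labelled nucleotides.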

Setting [3] is: HCV polymerase inhibitory activity IC50, 1b, type 1b enzyme.
[4] abbreviates: HCV polymerase inhibitory activity IC50, 1a, type 1a enzyme.
Where [5] appears, read: HCV polymerase inhibitory activity (IC50), 1b, type 1b enzyme 0.5 μg/ml, 25° C., 60 min.
The mark [6] stands for this setting: HCV polymerase inhibitory activity (IC50), 1a, type 1a enzyme 1.5 μg/ml, 25° C., 60 min.

Regarding `CC(=O)N1CCN(S(=O)(=O)c2ccc(C(C)C)cc2)[C@@H](C(=O)NCc2ccc(C(F)(F)F)cc2)C1` [Example 1116, (R)-4-acetyl-1-(4-isopropyl-benzenesulfonyl)-piperazine-2-carboxylic acid 4-trifluoromethyl-benzylamide], the IC50 in test [1] (setting [3]) and in test [2] (setting [4]) was 100 to 1000 nM in each case.
`O=C(NCc1ccc(OC(F)F)cc1)[C@H]1CN(c2nc3nc(C4CC4)ncc3s2)CCN1S(=O)(=O)c1ccc(OC(F)(F)F)cc1` [Example 1017, (R)-4-(5-cyclopropyl-thiazolo[4,5-d]pyrimidin-2-yl)-1-(4-trifluoromethoxy-benzenesulfonyl)-piperazine-2-carboxylic acid 4-difluoromethoxy-benzylamide]: the IC50 in test [1] (setting [3]) and in test [2] (setting [4]) was less than 100 nM in each case.
On to `O=C(NCc1ccc(OC(F)(F)F)cc1)[C@H]1CN(c2nc3c(=O)n(CCO)ncc3s2)CCN1S(=O)(=O)c1ccc(OC(F)(F)F)cc1` [Example 1078, (R)-4-[5-(2-hydroxy-ethyl)-4-oxo-4,5-dihydro-thiazolo[4,5-d]pyridazin-2-yl]-1-(4-trifluoromethoxy-benzenesulfonyl)-piperazine-2-carboxylic acid 4-trifluoromethoxy-benzylamide], for which the IC50 in test [1] (setting [3]) and in test [2] (setting [4]) was less than 100 nM each time.
Turning to `CC(=O)N1CCN(S(=O)(=O)c2ccc(C(C)C)cc2)C(C(=O)NCc2ccc(C(F)(F)F)cc2)C1` (centres unmarked) [Example 1115, 4-acetyl-1-(4-isopropyl-benzenesulfonyl)-piperazine-2-carboxylic acid 4-trifluoromethyl-benzylamide], the half-inhibitory concentration (IC50) in test [1] (setting [3]) was greater than 1000 nM; in test [2] (setting [4]), 100 to 1000 nM.
For the compound `CCCc1ccc(S(=O)(=O)N2CCN(c3nc(C)c(C(=O)O)s3)C[C@@H]2C(=O)NCc2ccc(C(C)C)cc2C)cc1` [Example 331, 2-[(R)-3-(4-isopropyl-2-methyl-benzylcarbamoyl)-4-(4-propyl-benzenesulfonyl)-piperazin-1-yl]-4-methyl-thiazole-5-carboxylic acid], the half-maximal inhibitory concentration (IC50) in test [1] (setting [5]) and in test [2] (setting [6]) was less than 100 nM throughout.
Take `CC(C)(C)c1ccc(CNC(=O)[C@H]2CN(c3cnc4c(n3)NC(=O)OC4)CCN2S(=O)(=O)c2ccc(OC(F)(F)F)cc2)cc1` [Example 579, (R)-4-(2-oxo-1,4-dihydro-2H-pyrazino[2,3-d][1,3]oxazin-7-yl)-1-(4-trifluoromethoxy-benzenesulfonyl)-piperazine-2-carboxylic acid 4-tert-butyl-benzylamide]: the IC50 in test [1] (setting [5]) and in test [2] (setting [6]) was less than 100 nM each time.
On to `CCC(F)(F)c1ccc(CNC(=O)[C@H]2CN(C(=O)Cn3nnnc3N)CCN2S(=O)(=O)c2ccc(OC(F)(F)F)cc2)cc1` [Example 1097, (R)-4-[2-(5-amino-tetrazol-1-yl)-acetyl]-1-(4-trifluoromethoxy-benzenesulfonyl)-piperazine-2-carboxylic acid 4-(1,1-difluoro-propyl)-benzylamide], for which the IC50 in test [1] (setting [3]) and in test [2] (setting [4]) was 100 to 1000 nM throughout.
For the compound `O=C(NCc1ccc(OC(F)(F)F)cc1)[C@H]1CN(c2nc3nc(Cl)ncc3s2)CCN1S(=O)(=O)c1ccc(OC(F)(F)F)cc1` [Example 802, (R)-4-(5-chloro-thiazolo[4,5-d]pyrimidin-2-yl)-1-(4-trifluoromethoxy-benzenesulfonyl)-piperazine-2-carboxylic acid 4-trifluoromethoxy-benzylamide], the half-inhibitory concentration (IC50) in test [1] (setting [3]) and in test [2] (setting [4]) was less than 100 nM each time.
Regarding `CCN(C)c1ccc(CNC(=O)[C@H]2CN(c3nc(C)c(C(=O)O)s3)CCN2S(=O)(=O)c2ccc(OC(F)(F)F)cc2)cc1` [Example 424, 2-[(R)-3-[4-(ethyl-methyl-amino)-benzylcarbamoyl]-4-(4-trifluoromethoxy-benzenesulfonyl)-piperazin-1-yl]-4-methyl-thiazole-5-carboxylic acid], the IC50 in test [1] (setting [5]) and in test [2] (setting [6]) was less than 100 nM each time.
Turning to `CCCc1ccc(S(=O)(=O)N2CCN(c3ncc(C(=O)O)s3)C[C@@H]2C(=O)NCc2ccc(C(C)C)cc2)cc1` [Example 329, 2-[(R)-3-(4-isopropyl-benzylcarbamoyl)-4-(4-propyl-benzenesulfonyl)-piperazin-1-yl]-thiazole-5-carboxylic acid], the 50% inhibitory concentration (IC50) in test [1] (setting [5]) and in test [2] (setting [6]) was less than 100 nM in each case.
Turning to `COCc1ccc(CNC(=O)[C@H]2CN(c3cnc(C(=O)O)cn3)CCN2S(=O)(=O)c2ccc(OC(F)(F)F)cc2)cc1` [Example 473, (R)-3-(4-methoxymethyl-benzylcarbamoyl)-4-(4-trifluoromethoxy-benzenesulfonyl)-3,4,5,6-tetrahydro-2H-[1,2′]bipyrazinyl-5′-carboxylic acid], the IC50 in test [1] (setting [5]) and in test [2] (setting [6]) was less than 100 nM throughout.
With `CC(=O)N1CCN(S(=O)(=O)c2ccc3c(c2)N(C)CCC3)[C@@H](C(=O)NCc2ccc(C(C)C)cc2)C1` [Example 307, (R)-4-acetyl-1-(1-methyl-1,2,3,4-tetrahydro-quinoline-7-sulfonyl)-piperazine-2-carboxylic acid 4-isopropyl-benzylamide], the 50% inhibitory concentration (IC50) is less than 100 nM in test [1] (setting [5]) and 100 to 1000 nM in test [2] (setting [6]).
As to `O=C(NCc1ccc(OC(F)(F)F)cc1)[C@H]1CN(c2nc3nc(CC4CC4)ncc3s2)CCN1S(=O)(=O)c1ccc(OC(F)(F)F)cc1` [Example 992, (R)-4-(5-cyclopropylmethyl-thiazolo[4,5-d]pyrimidin-2-yl)-1-(4-trifluoromethoxy-benzenesulfonyl)-piperazine-2-carboxylic acid 4-trifluoromethoxy-benzylamide], the IC50 in test [1] (setting [3]) and in test [2] (setting [4]) was less than 100 nM each time.
Consider `CCC(F)(F)c1ccc(CNC(=O)[C@H]2CN(c3cnc4cnc(C)nc4n3)CCN2S(=O)(=O)c2ccc(OC(F)(F)F)cc2)cc1` [Example 692, (R)-4-(2-methyl-pteridin-7-yl)-1-(4-trifluoromethoxy-benzenesulfonyl)-piperazine-2-carboxylic acid 4-(1,1-difluoro-propyl)-benzylamide], for which the half-maximal inhibitory concentration (IC50) in test [1] (setting [3]) and in test [2] (setting [4]) was less than 100 nM in each case.
In the case of `CC(=O)Nc1ccc(S(=O)(=O)N2CCN(C(C)=O)CC2C(=O)NCc2ccc(C(F)(F)F)cc2)cc1` (centres unmarked) [Example 39, 4-acetyl-1-(4-acetylamino-benzenesulfonyl)-piperazine-2-carboxylic acid 4-trifluoromethyl-benzylamide], the concentration for half-maximal inhibition (IC50) in test [1] (setting [5]) and in test [2] (setting [6]) was greater than 1000 nM throughout.
Consider `CCCc1ccc(S(=O)(=O)N2CCN(C(C)=O)C[C@@H]2C(=O)NCc2ccc(C(C)C)cc2)cc1` [Example 205, (R)-4-acetyl-1-(4-propyl-benzenesulfonyl)-piperazine-2-carboxylic acid 4-isopropyl-benzylamide], for which the IC50 in test [1] (setting [5]) and in test [2] (setting [6]) was less than 100 nM throughout.
As to `CCCc1ccc(S(=O)(=O)N2CCN(C(=O)Nc3cccc(OCC(=O)O)c3)C[C@@H]2C(=O)NCc2ccc(C(C)C)cc2)cc1` [Example 282, (3-{[(R)-3-(4-isopropyl-benzylcarbamoyl)-4-(4-propyl-benzenesulfonyl)-piperazine-1-carbonyl]-amino}-phenoxy)-acetic acid], the values for the IC50 in test [1] (setting [5]) and in test [2] (setting [6]) were less than 100 nM and 100 to 1000 nM, respectively.
The corresponding values for `CSc1ccc(CNC(=O)[C@H]2CN(C(C)=O)CCN2S(=O)(=O)c2ccc(C(C)C)cc2)cc1` [Example 227, (R)-4-acetyl-1-(4-isopropyl-benzenesulfonyl)-piperazine-2-carboxylic acid 4-methylsulfanyl-benzylamide] are 100 to 1000 nM and 100 to 1000 nM.
On the same counts, the results for `COc1ccc(S(=O)(=O)N2CCN(C(C)=O)C[C@@H]2C(=O)NCc2ccc(C(C)C)cc2)cc1C(=O)O` [Example 248, 5-[(R)-4-acetyl-2-(4-isopropyl-benzylcarbamoyl)-piperazine-1-sulfonyl]-2-methoxy-benzoic acid] are 100 to 1000 nM and greater than 1000 nM.
On to `CC(=O)N1CCN(S(=O)(=O)c2ccc(C(C)C)cc2)[C@@H](C(=O)NCc2ccc(C3CC3)cc2)C1` [Example 280, 4-acetyl-1-(4-isopropyl-benzenesulfonyl)-piperazine-2-carboxylic acid 4-cyclopropyl-benzylamide], for which the IC50 in test [1] (setting [5]) and in test [2] (setting [6]) was 100 to 1000 nM each time.
Consider `CC(=O)N1CCC(CNC(=O)[C@H]2CN(C(C)=O)CCN2S(=O)(=O)c2ccc(OC(F)(F)F)cc2)CC1` [Example 670, (R)-4-acetyl-1-(4-trifluoromethoxy-benzenesulfonyl)-piperazine-2-carboxylic acid (1-acetyl-piperidin-4-ylmethyl)-amide], for which the IC50 in test [1] (setting [3]) and in test [2] (setting [4]) was greater than 1000 nM in each case.
Regarding `CN(C)C(=O)c1cncc2ncc(N3CCN(S(=O)(=O)c4ccc(OC(F)(F)F)cc4)[C@@H](C(=O)NCc4ccc(OC(F)(F)F)cc4)C3)nc12` [Example 866, 2-[(R)-4-(4-trifluoromethoxy-benzenesulfonyl)-3-(4-trifluoromethoxy-benzylcarbamoyl)-piperazin-1-yl]-pyrido[3,4-b]pyrazine-8-carboxylic acid dimethylamide], the IC50 in test [1] (setting [3]) and in test [2] (setting [4]) was less than 100 nM in each case.
